# “Also recorded” adds a separate entry of the source. Read-outs that look alike come from different tables or passages of the source. Marks after values point to notes of the source that are not given here.
# Assays:
# [1] = Pharmacokinetic analysis of serum levels by LC/MS/MS
# Protocol: Pharmacokinetic analysis of erlotinib serum levels was undertaken at day 6 (erlotinib alone) and at day 14 (erlotinib and 1 mg/kg/day rosuvastatin treatments) and rosuvastatin at the day 14 timepoint of cycle 1 in 6 study patients (Schedule A). On day 6 and 14 serum erlotinib levels and day 14 serum rosuvastatin levels were determined at 2 h intervals for a full 24 h after drug treatments. The analysis of rosuvastatin and erlotinib was performed by a validated liquid chromatography mass spectrometry/mass spectrometry (LC/MS/MS) method. Protein precipitation (plasma: 50/50 acetonitrile/[…] 1:2) was used for sample preparation before injecting to HPLC for separation. Rosuvastatin, erlotinib and internal standard (IS), 6,7-Dimethyl-2,3-di(2-pyridyl)-quinoxaline (DMDPQ) was eluted by HPLC (Accela, Thermo) using a gradient mobile phase [0.2 % Formic acid (V:V), and 100 % methanol]. […] Detection was done by tandem Mass spectrometer (TSQ Quantum Access MAX, Thermo) with electrospray ionization in positive mode. The multiple reaction monitoring (MRM) was be used to detect specific precursor ion to product ion transitions for rosuvastatin (m/s 482.3/258.1), erlotinib (m/s 394.3/336.2), and IS (m/s 313.2/91.2), respectively. Xcalibur and TSQ Tune master software (Thermo) was used as the system controller and integrator.
# [2] = tested on: NSCLC patients; set-up: method as in PMID 21411446; conditions: hypercholesterolemia dose of simvastatin daily with standard dose gefitinib, SCC patients; cited from earlier work
# [3] = tested on: patients with advanced solid tumours
# Protocol: This was a single-center, phase I open-label study to determine the safety and RPTD of rosuvastatin in combination with the standard clinical dose of erlotinib (150 mg/day) in patients with advanced solid tumours. […] Eight cohorts from 1 to 8 mg/kg/day rosuvastatin given concurrently with standard dose erlotinb in 28-day cycles were planned. […] Patients received therapy until evidence of disease progression, the development of serious or unmanageable adverse events (SAE), or until study withdrawal. Clinically or radiological documented disease and an ECOG performance status of 0, 1 or 2 was also required. All study patients had adequate hematogical, hepatic and renal functions at baseline. Adequate hematological function was defined as hemoglobin ≥90 g/L, absolute granulocyte count ≥1.5 × 10^9/L and platelet counts ≥100 × 10^9/L. Biochemical parameters for hepatic function included; total bilirubin <1.5× the upper limit of normal (ULN) and ALT/AST <1.5× ULN. […] Any anticholesterol agents were discontinued at least 7 days prior to starting the trial.
# Erlotinib was provided by Roche Canada and was administered orally in tablet form at a standard daily dose of 150 mg. […] The starting dose of rosuvastatin was 1 mg/kg/day with the dose of rosuvastatin increasing in a step-wise manner in escalating doses of 1 mg/kg/day. […] During cycle-1 of the dose escalation, treatment with rosuvastin was administered as follows: 1 week off, then daily for 2 weeks, then 1 week off. […] Doses were rounded to the nearest 5 mg since rosuvastatin is available in 5, 10, 20 and 40 mg tablets (purchased from AstraZeneca, Canada). Oral administration of rosuvastatin was once daily if daily dose was <80 mg, twice if 81–160 mg, three times a day if 161–240 mg and four times a day if >240 mg daily dose. […] No prophylactic medications were supplied. Standard supportive care medications were allowed. Oral supplementation of ubiquinone at 60 mg po QID was initiated if patient developed grade 3 or 4 muscle toxicity and continued until recovery to baseline.
# A 3 + 3 dose escalation phase I study design was used, with 3 patients planned at each cohort. […] All 3 patients at a given dose level needed to complete the first cycle of treatment without suffering DLT before new patients were enrolled at the next dose level. The lead patient at each new dose level completed the first cycle of treatment before other patients were enrolled at the same dose level. If 1/3 initial patients at each dose experienced a DLT, then the treatment level was expanded to at least 6 patients. […] There was no dose escalations allowed within individual patients. If >2 patients at any dose level experienced DLT, then that level was considered to have exceeded the maximal tolerated dose (MTD), and the level immediately preceding that level was designated as MTD and RPTD.
# [4] = tested on: advanced solid tumours; test: Tumor response (RECIST) and days on study; format: in vivo, human
# Protocol: Physical examinations occurred at the start of each cycle and radiological tumor evaluations were completed after every 2 cycles. Tumor response was assessed using response evaluation criteria in solid tumors (RECIST) criteria. […] In these cases, the patient went off protocol treatment. […] Similar strategies were employed for other toxicities as well. […] This study was conducted according to Good Clinical Practice.
# [5] = tested on: CYP3A4; conditions: cited from earlier work
# [6] = On-study laboratory evaluations (CPK, cholesterol, LDL, HDL); format: in vivo, human
# Protocol: Patients had weekly laboratory evaluations for hematogical, hepatic and renal functions and biochemical changes including creatine and creatine phosphokinase (CPK) and fasting total cholesterol, HDL and LDL during cycle 1 and at the start of each subsequent cycle. Physical examinations occurred at the start of each cycle and radiological tumor evaluations were completed after every 2 cycles. Tumor response was assessed using response evaluation criteria in solid tumors (RECIST) criteria.
# [7] = tested on: recurrent SCC patients; conditions: cited from earlier work
# [8] = tested on: patients with solid tumors; conditions: weekly regimen, lovastatin monotherapy; cited from earlier work
# [9] = concurrent rosuvastatin + erlotinib
smiles,measurement,setting,value
C#Cc1cccc(Nc2ncnc3cc(OCCOC)c(OCCOC)cc23)c1 [erlotinib],Tmax,"[1]; erlotinib (+rosuvastatin 1 mg/kg/day) (day 14), individual Schedule A patients 14-18",6 h
same,Tmax,"[1]; erlotinib alone (day 6), 150 mg/day, individual Schedule A patients 13-18",6 h
same,Half-life of erlotinib on addition of rosuvastatin,"[1]; human, in vivo",unaffected
same,half-life,"[1]; human, in vivo, 150 mg/day",18.1 h
same,half-life,"[1]; human, in vivo, 150 mg/day, t 1/2, erlotinib alone (day 6), 150 mg/day, individual Schedule A patients 13-18",25.7 h
same,half-life,"[1]; human, in vivo, t1/2",24.3 h
same,"Erlotinib AUC, day 6 (alone) versus day 14 (+rosuvastatin)",[1]; in vivo,did not differ significantly
same,"Erlotinib Cmax and Tmax, day 6 versus day 14 (+rosuvastatin)",[1]; in vivo,similar
same,Plasma erlotinib levels on addition of rosuvastatin,[1]; in vivo,unaffected
CCC(C)(C)C(=O)O[C@H]1C[C@@H](C)C=C2C=C[C@H](C)[C@H](CC[C@@H]3C[C@@H](O)CC(=O)O3)[C@H]21 [simvastatin],Response rates and PFS compared to gefitinib alone,[2],higher response rates and longer PFS
CC(C)c1nc(N(C)S(C)(=O)=O)nc(-c2ccc(F)cc2)c1/C=C/[C@@H](O)C[C@@H](O)CC(=O)O [rosuvastatin],"Anorexia, ≥Grade 2","[3]; human, in vivo",62.5%
same,"Anxiety, ≥Grade 2","[3]; human, in vivo",4.2%
same,"Diarrhea, ≥Grade 2","[3]; human, in vivo",20.8%
same,"Fatigue, ≥Grade 2","[3]; human, in vivo",75.0%
same,"Muscle weakness, ≥Grade 2","[3]; human, in vivo",41.7%
same,"Myalgia, ≥Grade 2","[3]; human, in vivo",29.2%
same,"Nausia, ≥Grade 2","[3]; human, in vivo",16.7%
same,"Rash, ≥Grade 2","[3]; human, in vivo",29.2%
same,"Rhabdomyolysis, ≥Grade 2","[3]; human, in vivo",4.2^a %
same,"Vomiting, ≥Grade 2","[3]; human, in vivo",16.7%
same,"Weight loss, ≥Grade 2","[3]; human, in vivo",16.7%
same,Patients who developed rhabdomyolysis (study related death),"[3]; rosuvastatin 2 mg/kg/day + erlotinib, 8 evaluable patients",single patient out of 8
same,"Patients with durable stable disease, NSCLC",[4]; [9],2/4
same,"Patients with durable stable disease, genitourinary (GU) cancer (vaginal squamous epithelial carcinoma)",[4]; [9],1/4
same,"Patients with durable stable disease, pancreatic cancer (neuroendocrine tumour)",[4]; [9],1/2
same,Evaluable patients on study for greater than 170 days,"[4]; concurrent rosuvastatin + erlotinib (Cohorts 1, 2 and Schedule A)",4/16
same,Patients on study for greater than 275 days,"[4]; concurrent rosuvastatin + erlotinib, 16 evaluable",3 patients
same,Durable stable disease for more than 170 days (rate),"[4]; concurrent rosuvastatin + erlotinib, evaluable for response n = 16",25%
same,Patients with disease stabilization greater than 6 months,"[4]; concurrent treatment regimens, rosuvastatin + erlotinib",4/16
same,Objective responses (RECIST),"[4]; rosuvastatin + erlotinib, 22 evaluable patients",No objective responses; also recorded: absence of objective responses
same,CYP3A4 substrate,[5]; ref 32,non-CYP3A4 substrate
same,CYP3A4 substrate,[5]; ref 33,not a CYP3A4 substrate
same,Patients with elevated CPK levels during rosuvastatin treatments,[6]; 1 mg/kg/day dose + erlotinib,1 out of 16
same,Patients with elevated CPK levels during rosuvastatin treatments,[6]; 2 mg/kg/day dose (Cohort 2) + erlotinib,4 out of the 8
same,Serum CPK level in the patient with rhabdomyolysis,"[6]; day 28 (erlotinib and rosuvastatin 2 mg/kg/day), increased from 60 U/L",over 2000 U/L
same,"Change in serum cholesterol, LDL or HDL levels","[6]; rosuvastatin + erlotinib, even in patients on study greater than 170 days",did not result in significant changes
CC[C@H](C)C(=O)O[C@H]1C[C@@H](C)C=C2C=C[C@H](C)[C@H](CC[C@@H]3C[C@@H](O)CC(=O)O3)[C@H]21 [lovastatin],DLT of lovastatin,"[7]; prolonged oral administration, recurrent SCC",reversible muscle toxicity
same,Patients with disease stabilization lasting greater than 3 months,"[7]; single agent lovastatin, SCC patients",23%
same,Dose-limiting muscle toxicities greater than grade 2 in severity,"[7]; single agent lovastatin, of the 5 patients with muscle DLT",2
same,Patients with reversible dose-limiting muscle toxicities,"[7]; single agent lovastatin, of the 24 patients enrolled",5 patients
same,Clinical efficacy as an anticancer therapy,[8],failed to demonstrate clinical efficacy

# — publication PMC4815068, “A phase I study of high-dose rosuvastatin with standard dose erlotinib in patients with advanced solid malignancies” (Journal of Translational Medicine, 2016)
